Test results as given in ChEMBL document CHEMBL5543113, “Amphiphilic α-Peptoid-deoxynojirimycin Conjugate-based Multivalent Glycosidase Inhibitor for Hypoglycemic Effect and Fluorescence Imaging” (J Med Chem, 2024).
Calls of active or inactive are those of the source. No cut-off for these calls is given here.

Experiments:
Mus musculus [1] = assay: Hypoglycemic activity in C57BL/6J mouse assessed as blood glucose level at 0.4 mg/kg, po co-administered with maltose and measured after 30 mins by glucometer (380.8 +/- 20.6 mg/dL); type: functional; conditions: 0.5 h
Mus musculus [2] = assay: Hypoglycemic activity in C57BL/6J mouse assessed as reduction in PBG level measured per DNJ unit at 1.6 mg/kg, po co-administered with maltose and measured at 15 to 30 mins by glucometer relative to control; type: functional; set-up: scale not given: the % may be the effect or the level left; conditions: time 15-30 min
Mus musculus [3] = assay: Hypoglycemic activity in C57BL/6J mouse assessed as blood glucose level at 0.8 mg/kg, po co-administered with maltose and measured after 30 mins by glucometer (380.8 +/- 20.6 mg/dL); type: functional; conditions: 0.5 h
[4] = target: Alpha-glucosidase (Saccharomyces cerevisiae S288c) (UniProt P53341+P38158+P07265); assay: Inhibition of Saccharomyces cerevisiae Alpha-glucosidase at 1 mM incubated for 10 mins by absorbance based microplate spectrophotometric analysis; type: protein assay
[5] = Drug uptake in C57/6J mouse liver assessed as increase in fluorescence at 5 x 10^-5M, po administered as Nile red complex and measured after 4 hrs by fluorescence imaging analysis; type: ADME, organism-based; conditions: in vivo, dose 5 10^-5M
[6] = Stability of compound assessed as fluorescence intensity at 2 x 10^-4 M administered as Nile red complex at pH 1.0 to 7.0 by fluorescence spectra analysis 9Rvb = 3548); type: physicochemical; conditions: pH 1, 200 µM; dose 2 10^-4M
[7] = Self assembly property of the compound assessed as diameter at 7.5 x 10^-5 mol/L by dynamic light scattering spectrometric analysis; type: physicochemical; conditions: 75 µM; dose 7.5 10^-5mol/L
Mus musculus [8] = assay: Hypoglycemic activity in KKAy diabetic mouse model assessed as decrease in PBG level at 1.6 mg/kg, po co-administered with maltose and measured after 30 mins by glucometer relative to control; type: functional; set-up: scale not given: the % may be the effect or the level left; conditions: 0.5 h
[9] = Drug uptake in C57/6J mouse small intestine assessed as increase in fluorescence at 5 x 10^-5M, po administered as Nile red complex and measured upto 2 hrs by fluorescence imaging analysis; type: ADME, organism-based; conditions: in vivo, dose 5 10^-5M
[10] = Drug uptake in C57/6J mouse kidney assessed as increase in fluorescence at 5 x 10^-5M, po administered as Nile red complex and measured after 4 hrs by fluorescence imaging analysis; type: ADME, organism-based; conditions: in vivo, dose 5 10^-5M
Mus musculus [11] = assay: Hypoglycemic activity in C57BL/6J mouse assessed as decrease in PBG level at 0.8 mg/kg, po co-administered with maltose and measured after 30 mins by glucometer relative to control; type: functional; set-up: scale not given: the % may be the effect or the level left; conditions: 0.5 h
Mus musculus [12] = assay: Hypoglycemic activity in KKAy diabetic mouse model assessed as decrease in PBG level at 1.6 mg/kg, po co-administered with maltose and measured after 120 mins by glucometer relative to control; type: functional; set-up: scale not given: the % may be the effect or the level left; conditions: 2 h
Mus musculus [13] = assay: Hypoglycemic activity in C57BL/6J mouse assessed as blood glucose level at 0.4 mg/kg, po co-administered with maltose and measured after 15 mins by glucometer (380.8 +/- 20.6 mg/dl); type: functional; conditions: 0.25 h
Mus musculus [14] = assay: Hypoglycemic activity in C57BL/6J mouse assessed as reduction in PBG level measured per DNJ unit at 0.8 mg/kg, po co-administered with maltose and measured at 15 to 30 mins by glucometer relative to control; type: functional; set-up: scale not given: the % may be the effect or the level left; conditions: time 15-30 min
[15] = Toxicity in C57BL/6J mouse assessed as effect on liver morphology at 1.6 mg/kg, po co-administered with maltose for 7 days by Hematoxylin and eosin staining based analysis; type: organism-based; conditions: in vivo, 168 h, time 7 day
[16] = Drug uptake in C57/6J mouse lung assessed as increase in fluorescence at 5 x 10^-5M, po administered as Nile red complex and measured after 4 hrs by fluorescence imaging analysis; type: ADME, organism-based; conditions: in vivo, dose 5 10^-5M
Mus musculus [17] = assay: Relative hypoglycemic rate in C57BL/6J mouse assessed as molar reduction in PBG level by measuring fold change at 1.6 mg/kg, po co-administered with maltose and measured after 30 mins by glucometer relative to miglitol; type: functional; conditions: 0.5 h
Mus musculus [18] = assay: Hypoglycemic activity in C57BL/6J mouse assessed as decrease in PBG level at 0.4 mg/kg, po co-administered with maltose and measured after 15 mins by glucometer relative to control; type: functional; set-up: scale not given: the % may be the effect or the level left; conditions: 0.25 h
[19] = Self assembly property of the compound in water assessed as mean diameter at 1 x 10^-4 M by dynamic light scattering spectrometric analysis; type: physicochemical; conditions: buffer, 100 µM; dose 1 10^-4M
Mus musculus [20] = assay: Relative hypoglycemic rate in KKAy diabetic mouse model assessed as molar reduction in PBG level by measuring fold change at 1.6 mg/kg, po co-administered with maltose and measured after 30 mins by glucometer relative to miglitol; type: functional; conditions: 0.5 h
[21] = Self assembly property of the compound assessed as diameter at 2 x 10^-4 mol/L by dynamic light scattering spectrometric analysis; type: physicochemical; conditions: 200 µM; dose 2 10^-4mol/L
Mus musculus [22] = assay: Hypoglycemic activity in KKAy diabetic mouse model assessed as molar decrease in PBG level at 1.6 mg/kg, po co-administered with maltose and measured after 30 mins by glucometer relative to control; type: functional; set-up: scale not given: the % may be the effect or the level left; conditions: 0.5 h
Mus musculus [23] = assay: Hypoglycemic activity in C57BL/6J mouse assessed as molar reduction in PBG level at 1.6 mg/kg, po co-administered with maltose and measured after 30 mins by glucometer relative to control; type: functional; set-up: scale not given: the % may be the effect or the level left; conditions: 0.5 h
Mus musculus [24] = assay: Hypoglycemic activity in C57BL/6J mouse assessed as blood glucose level at 1.6 mg/kg, po co-administered with maltose and measured after 15 mins by glucometer (380.8 +/- 20.6 mg/dL); type: functional; conditions: 0.25 h
[25] = Self assembly property of compound assessed as Nilered-compound complex formation by measuring increase in fluorescence intensity by Nile red dye based fluorescence analysis; type: physicochemical
[26] = Self assembly property of the compound assessed as diameter at 5 x 10^-5 mol/L by dynamic light scattering spectrometric analysis; type: physicochemical; conditions: 50 µM; dose 5 10^-5mol/L
Oryza sativa = assay: Potency index, ratio of miglitol Ki to test compound Ki for inhibition of rice Alpha-glucosidase incubated for 10 mins by Lineweaver-Burk plot analysis
[27] = Stability of compound in simulated intestinal fluid at 2 x 10^-4 M administered as Nile red complex by fluorescence spectra analysis; type: ADME; conditions: simulated gi fluid, 200 µM; dose 2 10^-4M
[28] = Binding affinity to mouse alpha-glucosidase assessed as DNJ binding constant at 2 x 10^-4 M administered as Nile red complex in presence of DNJ by fluorescence spectra analysis
Aspergillus niger = assay: Potency index, ratio of miglitol Ki to test compound Ki for inhibition of Aspergillus niger Alpha-glucosidase incubated for 10 mins by Lineweaver-Burk plot analysis
Mus musculus [29] = assay: Hypoglycemic activity in C57BL/6J mouse assessed as decrease in PBG level at 0.8 mg/kg, po co-administered with maltose and measured after 15 mins by glucometer relative to control; type: functional; set-up: scale not given: the % may be the effect or the level left; conditions: 0.25 h
[30] = Drug uptake in C57/6J mouse spleen assessed as increase in fluorescence at 5 x 10^-5M, po administered as Nile red complex and measured after 4 hrs by fluorescence imaging analysis; type: ADME, organism-based; conditions: in vivo, dose 5 10^-5M
Mus musculus [31] = assay: Hypoglycemic activity in KKAy diabetic mouse model assessed as blood glucose level at 1.6 mg/kg, po co-administered with maltose and measured after 30 mins by glucometer (reference value: 582.6 +/- 22.9 mg/dl); type: functional; conditions: 0.5 h

## CCCCCCCCCCCCCCCCCCNC(=O)CN(Cc1cn(CCCCCCN2C[C@H](O)[C@@H](O)[C@H](O)[C@H]2CO)nn1)C(=O)CN(Cc1cn(CCCCCCN2C[C@H](O)[C@@H](O)[C@H](O)[C@H]2CO)nn1)C(=O)CN(Cc1cn(CCCCCCN2C[C@H](O)[C@@H](O)[C@H](O)[C@H]2CO)nn1)C(=O)CN(Cc1cn(CCCCCCN2C[C@H](O)[C@@H](O)[C@H](O)[C@H]2CO)nn1)C(C)=O
Mus musculus [1]
  Activity: 309.9 mg/dL
Mus musculus [2]
  Activity: 11.5%
Mus musculus [3]
  Activity: 287.6 mg/dL
[4]
  inhibition: inactive
[5]
  Drug uptake: Not Active
[6]
  Flu intensity: 1001
[7]
  Activity: 243 nm
Mus musculus [8]
  Activity: 26.2%
[9]
  Drug uptake: Active
[10]
  Drug uptake: Not Active
Mus musculus [11]
  Activity: 24.5%
Mus musculus [12]
  Activity: 19.9%
Mus musculus [13]
  Activity: 347.8 mg/dL
Mus musculus [14]
  Activity: 14.2%
[15]
  Activity: Non-Toxic
[16]
  Drug uptake: Not Active
Mus musculus [17]
  fold change (FC): 4
Mus musculus [18]
  Activity: 6.5%
[19]
  Activity: 283 nm
Mus musculus [20]
  fold change (FC): 6.9
[21]
  Activity: 285 nm
Mus musculus [22]
  Activity: 7.6%
Mus musculus [23]
  Activity: 11.5%
Mus musculus [24]
  Activity: 302.04 mg/dL
[25]
  Activity: Dose-Dependent Effect
[26]
  Activity: 233 nm
Oryza sativa
  Ratio Ki: 6.7
[27]
  Stability: Stable
[28]
  Ka: 308 M⁻¹
Aspergillus niger
  Ratio Ki: 121
Mus musculus [29]
  Activity: 12.2%
[30]
  Drug uptake: Not Active
Mus musculus [31]
  Activity: 419.7 mg/dL
